From patent US20180296630A1, “METHODS AND COMPOSITIONS FOR PREVENTING OR TREATING OPHTHALMIC CONDITIONS” (Stealth BioTherapeutics Corp, priority 2012, published 2018)

Columns and labels:
[1] = tested on: primary human retinal pigment epithelial (RPE) cells; experiment: Apoptosis of RPE cells induced by tBHP; format: cell-based; conditions: 1 μM for 4 h + 250 μM tBHP for 24 h
Description: FIG. 34A: control group; (Q2+Q4)%=1.27±0.3%; FIG. 34B: 250 μM tBHP for 24 h group; (Q2+Q4)%=15.7±0.6%; FIG. 34C: 1 μM D-Arg-2′,6′-Dmt-Lys-Phe-NH2 for 4 h+250 μM tBHP for 24 h group; (Q2+Q4)%=8.4±0.8%. FIG. 34D is a chart comparing the fluorescence ratio for the different groups. *P<0.05 C vs. B. FIG. 35 is a chart showing the MDA level induced by tBHP in 3 groups of RPE cells. (*P<0.05).

CNV mouse model = experiment: Laser-induced choroidal neovascularization (CNV) mouse model; format: in vivo, C57BL/6 male mice; conditions: one week after laser
Description: CNV were induced in the eye with laser burns. Methods useful in the present studies have been described by Reich, Mol Vis 2003; 9:210-216.
Briefly, five to six-week-old C57BL/6 male mice were anesthetized with chloral hydrate and the pupils were dilated with tropicamide. With a coverslip used as a contact lens, four laser spots (532 nm, 260 mw, 0.01 s, 50 μm; Novus Spectra, Lumenis, USA) were applied to the fundus in a circle around the optic disc in the right eye. Daily intraperitoneal injections of 1 mg/kg, 9 mg/kg D-Arg-2′,6′-Dmt-Lys-Phe-NH2 (D-Arg-2′,6′-Dmt-Lys-Phe-NH2) or vehicle were started the day prior to laser photocoagulation.
After one week, mice were deeply anaesthetized and perfused through the left ventricle with 1 ml (50 mg/ml) of PB S-buffered fluorescein-dextran. Eyes were enucleated and fixed in 4% paraformaldehyde for 2 h. The eyes were sectioned at the equator, and the anterior half and retina were removed. The posterior eye segment containing the sclera and choroid was dissected into quarters by four to five radial cuts and mounted on a slide. All flatmounts were examined by a fluorescence microscope (AxioCam MRC; Carl Zeiss). […]
There were 48 locations of neovascularization in each group. The area of neovascularization was calculated using IMAGE-PROPLUS6.0 software. […]

GTM3 cells = experiment: MMP decline, sustained oxidative injury by H2O2, GTM3 cells; format: cell-based, human; conditions: then 200 μM H2O2 24 h
Description: (§1) The effects of D-Arg-2′,6′-Dmt-Lys-Phe-NH2 on sustained oxidative injury of GTM and HTM cells was examined. Cells were pre-treated with 10^−6, 10^−7, 10^−8M of D-Arg-2′,6′-Dmt-Lys-Phe-NH2 for 1 h, and then incubated with 200 μM H2O2 for 24 h to investigate the protective effect of D-Arg-2′,6′-Dmt-Lys-Phe-NH2 in sustained oxidative stress.

iHTM cells = experiment: MMP decline, sustained oxidative injury by H2O2, iHTM cells; format: cell-based, human; conditions: then 200 μM H2O2 24 h
Description: as §1

GTM cells = experiment: Morphology of GTM cells exposed to H2O2 (inverted phase contrast microscopy); format: cell-based, human; conditions: peptide prior to H2O2, concentration-dependent and time-dependent
Description: The morphology of GTM cells was investigated when those cells were exposed to D-Arg-2′,6′-Dmt-Lys-Phe-NH2 prior to administration of hydrogen peroxide. […] That is, hydrogen peroxide mediated cell loss and rounding was diminished in cells exposed to D-Arg-2′,6′-Dmt-Lys-Phe-NH2 peptide. The mitochondrial membrane potential (Δψm) of HTM and GTM cells was also investigated when those cells were exposed to D-Arg-2′,6′-Dmt-Lys-Phe-NH2 prior to administration of hydrogen peroxide. The mitochondrial membrane potential was measured using confocal microscopy of cells labeled with tetramethylrhodamine methyl ester (TMRM, 500 nM×30 min) (FIG. 19-21). […] As such, D-Arg-2′,6′-Dmt-Lys-Phe-NH2 provides a protective effect against oxidative stress in GTM cells.

[2] = tested on: primary human retinal pigment epithelial (RPE) cells; experiment: MMP of RPE cells exposed to tBHP (JC-1, FACS); format: cell-based
Description: Next, the viability of primary RPE cells was tested in the presence of tBHP and various concentrations of D-Arg-2′,6′-Dmt-Lys-Phe-NH2. Cells were plated at 10,000 cells per well in a 96-well plate and cultured for 24 h, then starved for 24 h. After that, cells were exposed to increasing concentrations of tBHP (FIG. 23A), or preincubated for 4 h with different concentrations of D-Arg-2′,6′-Dmt-Lys-Phe-NH2, then stimulated with tBHP for 6 h (FIG. 23B). […] Intracellular ROS production in three groups of RPE cells was also examined using FACS analysis. […] Three different concentration of D-Arg-2′,6′-Dmt-Lys-Phe-NH2 groups were analyzed. The ratio of red to green in 500 μM tBHP for the 3 h group is 1.08, the ratio of red to green in 10 nM D-Arg-2′,6′-Dmt-Lys-Phe-NH2 for 4 h+500 tBHP for 3 h group is 1.25; the ratio of red to green in 100 nM D-Arg-2′,6′-Dmt-Lys-Phe-NH2 for 4 hr+500 μM tBHP for 3 h group is 1.4; and the ratio of red to green in 1 μM D-Arg-2′,6′-Dmt-Lys-Phe-NH2 for 4 h+500 μM tBHP for 3 h group is […]. […] FIG. 33A: Control group, R/G is 3.63±0.24; FIG. 33B: 500 μM tBHP for 3 h group, R/G is 1.08±0.11; FIG. 33C: 1 μM D-Arg-2′,6′-Dmt-Lys-Phe-NH2 for 4 h+500 μM tBHP for 3 h group, R/G is 2.38±0.18. FIG. 33D is a chart comparing the fluorescence ratio for the different groups. *P<0.01, C vs. B.

D-Arg-2′,6′-Dmt-Lys-Phe-NH2
(Q2+Q4)% cell apoptosis [1]: 8.4±0.8% | area of neovascularization (CNV mouse model; 1 mg/kg daily intraperitoneal): 0.0068±0.0025 | area of neovascularization (CNV mouse model; 9 mg/kg daily intraperitoneal): 0.0067±0 | MMP Decline (GTM3 cells; 0.01 μM pre-treatment 1 h): −31.33 ± 1.20 % | MMP Decline (GTM3 cells; 0.1 μM pre-treatment 1 h): −29.33 ± 2.19 % | MMP Decline (GTM3 cells; 1 μM pre-treatment 1 h): −24.33 ± 4.18 % | MMP Decline (iHTM cells; 0.01 μM pre-treatment 1 h): −58.24 ± 2.62 % | MMP Decline (iHTM cells; 0.1 μM pre-treatment 1 h): −53.24 ± 2.52 % | MMP Decline (iHTM cells; 1 μM pre-treatment 1 h): −44.99 ± 2.19 % | hydrogen peroxide-mediated morphological changes (cell loss and rounding) (GTM cells): protects cells from hydrogen peroxide-mediated morphological changes | ratio of red to green (JC-1) ([2]; 10 nM for 4 h + 500 tBHP for 3 h (FIG. 32)): 1.25 | ratio of red to green (JC-1) ([2]; 100 nM for 4 hr + 500 μM tBHP for 3 h (FIG. 32)): 1.4 | ratio of red to green (JC-1) ([2]; 1 μM for 4 h + 500 μM tBHP for 3 h (FIG. 32)): 2.28 | R/G (JC-1) ([2]; 1 μM for 4 h + 500 μM tBHP for 3 h (FIG. 33C)): 2.38±0.18
